Source: US11306092B2, “Amino indole compounds useful as TLR inhibitors” (BRISTOL-MYERS SQUIBB COMPANY, priority 2017, dated 2022)

How the values were obtained:
human TLR7 = biological target: T1, human TLR7 (Homo sapiens, UniProt Q9NYK1); assay: TLR7 inhibition reporter assay (HEK-Blue SEAP reporter); assay type: cell-based; details: HEK-Blue cells overexpressing human TLR7; gardiquimod 7.5 μM; 22 hour incubation
T1 construct: host or cells: HEK-Blue cells
T1 sequence (Q9NYK1 27-1049): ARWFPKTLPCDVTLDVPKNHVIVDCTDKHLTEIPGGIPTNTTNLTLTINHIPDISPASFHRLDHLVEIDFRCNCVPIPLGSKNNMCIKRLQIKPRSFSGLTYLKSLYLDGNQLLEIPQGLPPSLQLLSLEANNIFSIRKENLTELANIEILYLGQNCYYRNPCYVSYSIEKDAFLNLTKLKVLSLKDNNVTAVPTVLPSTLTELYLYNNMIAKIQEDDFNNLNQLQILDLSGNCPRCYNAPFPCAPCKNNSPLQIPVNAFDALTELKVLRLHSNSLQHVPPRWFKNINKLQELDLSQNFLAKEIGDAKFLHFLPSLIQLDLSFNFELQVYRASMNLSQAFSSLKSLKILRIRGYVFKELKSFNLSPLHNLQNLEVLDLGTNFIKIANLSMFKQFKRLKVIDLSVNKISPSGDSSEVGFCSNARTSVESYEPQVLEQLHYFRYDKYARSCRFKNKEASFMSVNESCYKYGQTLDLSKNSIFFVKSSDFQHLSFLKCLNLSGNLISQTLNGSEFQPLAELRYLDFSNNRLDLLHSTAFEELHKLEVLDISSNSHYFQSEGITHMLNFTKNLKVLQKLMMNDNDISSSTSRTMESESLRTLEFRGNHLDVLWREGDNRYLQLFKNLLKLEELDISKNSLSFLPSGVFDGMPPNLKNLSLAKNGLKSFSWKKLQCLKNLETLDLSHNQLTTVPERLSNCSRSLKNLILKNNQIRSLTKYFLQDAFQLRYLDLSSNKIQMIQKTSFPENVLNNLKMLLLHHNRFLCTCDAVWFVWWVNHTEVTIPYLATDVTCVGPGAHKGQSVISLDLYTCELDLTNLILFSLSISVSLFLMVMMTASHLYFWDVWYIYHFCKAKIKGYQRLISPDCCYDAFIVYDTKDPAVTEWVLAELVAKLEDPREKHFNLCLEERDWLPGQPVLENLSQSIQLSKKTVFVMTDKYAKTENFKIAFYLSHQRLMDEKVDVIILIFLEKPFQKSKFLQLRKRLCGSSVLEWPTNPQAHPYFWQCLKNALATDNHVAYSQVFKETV
Description: (§1) TLR7/8/9 Inhibition Reporter Assays
(§2) HEK-Blue™-cells (Invivogen) overexpressing human TLR7, TLR8 or TLR9 receptors were used for screening inhibitors of these receptors using an inducible SEAP (secreted embryonic alkaline phosphatase) reporter gene under the control of the IFN-β minimal promoter fused to five NF-κB and AP-1-binding sites. Briefly, cells are seeded into Greiner 384 well plates (15000 cells per well for TLR7, 20,000 for TLR8 and 25,000 for TLR9) and then treated with test compounds in DMSO to yield a final dose response concentration range of 0.05 nM-50 μM. After a 30 minute compound pre-treatment at room temperature, the cells are then stimulated with a TLR7 ligand (gardiquimod at a final concentration of 7.5 μM), TLR8 ligand (R848 at a final concentration of 15.9 μM) or TLR9 ligand (ODN2006 at a final concentration of 5 nM) to activate NF-κB and AP-1 which induce the production of SEAP. After a 22 hour incubation at 37° C., 5% CO2, SEAP levels are determined with the addition of HEK-Blue™ Detection reagent (Invivogen), a cell culture medium that allows for detection of SEAP, according to manufacturer's specifications. The percent inhibition is determined as the % reduction in the HEK-Blue signal present in wells treated with agonist plus DMSO alone compared to wells treated with a known inhibitor.

human TLR9 = biological target: T2, human TLR9 (Homo sapiens, UniProt Q9NR96); assay: TLR9 inhibition reporter assay (HEK-Blue SEAP reporter); assay type: cell-based; details: HEK-Blue cells overexpressing human TLR9; ODN2006 5 nM; 22 hour incubation
T2 construct: host or cells: HEK-Blue cells
T2 sequence (Q9NR96 26-1032): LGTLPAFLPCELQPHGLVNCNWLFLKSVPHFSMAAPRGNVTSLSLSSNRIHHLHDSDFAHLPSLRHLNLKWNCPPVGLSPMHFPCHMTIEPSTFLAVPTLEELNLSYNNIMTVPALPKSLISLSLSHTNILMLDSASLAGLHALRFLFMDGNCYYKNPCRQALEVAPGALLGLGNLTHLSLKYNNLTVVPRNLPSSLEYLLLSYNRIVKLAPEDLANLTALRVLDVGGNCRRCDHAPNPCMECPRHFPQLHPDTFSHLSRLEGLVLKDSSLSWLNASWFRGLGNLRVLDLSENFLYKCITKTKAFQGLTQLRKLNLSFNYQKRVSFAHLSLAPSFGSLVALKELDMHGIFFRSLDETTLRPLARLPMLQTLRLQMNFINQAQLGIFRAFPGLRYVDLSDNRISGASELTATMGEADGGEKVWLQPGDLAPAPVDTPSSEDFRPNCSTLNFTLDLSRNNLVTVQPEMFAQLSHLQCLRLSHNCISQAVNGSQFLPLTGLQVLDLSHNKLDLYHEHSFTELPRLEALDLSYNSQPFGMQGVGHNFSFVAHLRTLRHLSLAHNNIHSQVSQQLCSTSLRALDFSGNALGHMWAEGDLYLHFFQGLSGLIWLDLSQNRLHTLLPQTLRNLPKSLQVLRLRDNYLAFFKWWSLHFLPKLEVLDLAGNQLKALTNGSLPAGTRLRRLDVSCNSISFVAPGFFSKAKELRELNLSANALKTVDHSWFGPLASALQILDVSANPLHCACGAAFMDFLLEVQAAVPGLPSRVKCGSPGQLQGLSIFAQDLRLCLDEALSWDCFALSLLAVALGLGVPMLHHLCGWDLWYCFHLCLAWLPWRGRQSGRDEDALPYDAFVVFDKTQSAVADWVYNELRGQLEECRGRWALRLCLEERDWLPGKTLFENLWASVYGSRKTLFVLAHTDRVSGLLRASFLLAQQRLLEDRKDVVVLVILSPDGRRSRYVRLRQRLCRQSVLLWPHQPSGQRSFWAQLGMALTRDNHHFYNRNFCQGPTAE
Description: as §1, §2

Compound | IC50 (human TLR7) [nM] | IC50 (human TLR9) [nM]
COc1ccc(-c2[nH]c3ccc(NC4CCC(NCCCN5CCOCC5)CC4)cc3c2C(C)C)cc1OC (stereo not drawn) [Example 55, N1-(2-(3,4-dimethoxyphenyl)-3-isopropyl-1H-indol-5-yl)-N4-(3-morpholinopropyl)cyclohexane-1,4-diamine] | 167 | 631
COc1ccc(-c2[nH]c3ccc(NC4CCC(N5CCN(Cc6ccc(C)cc6)CC5)CC4)cc3c2C(C)C)cc1OC (stereo not drawn) [Example 66, 2-(3,4-dimethoxyphenyl)-3-isopropyl-N-(4-(4-(4-methylbenzyl)piperazin-1-yl)cyclohexyl)-1H-indol-5-amine] | 686 | 583
COc1ccc(-c2[nH]c3ccc(N4CCC(N5CCN(C6CCCC6)CC5)CC4)cc3c2C(C)C)cc1OC [Example 93, 5-(4-(4-cyclopentylpiperazin-1-yl)piperidin-1-yl)-2-(3,4-dimethoxyphenyl)-3-isopropyl-1H-indole] | 132 | 925
COc1ccc(-c2[nH]c3ccc(NC4CCC(N5CCN(CC(C)C)CC5)CC4)cc3c2C(C)C)cc1OC (stereo not drawn) [Example 51, 2-(3,4-dimethoxyphenyl)-N-(4-(4-isobutylpiperazin-1-yl)cyclohexyl)-3-isopropyl-1H-indol-5-amine] | 767 | 1400
CCN1CCC(N2CCN(c3ccc4[nH]c(-c5ccnc6[nH]ccc56)c(C)c4c3)CC2)CC1 [Example 145, 4-(5-(4-(1-ethylpiperidin-4-yl)piperazin-1-yl)-3-methyl-1H-indol-2-yl)-1H-pyrrolo[2,3-b]pyridine] | 2460 | 197
CCc1c(-c2ccc(OC)c(OC)c2)[nH]c2ccc(N(CC)C3CCN(C4CCN(C)CC4)CC3)cc12 [Example 28, 2-(3,4-dimethoxyphenyl)-N,3-diethyl-N-(1′-methyl-1,4′-bipiperidin-4-yl)-1H-indol-5-amine] | 2220 | 627
COc1ccc(-c2[nH]c3ccc(NC4CCC(NC5CCN(C)CC5)CC4)cc3c2C(C)C)cc1OC (single isomer, unassigned) [Example 41, N1-(2-(3,4-dimethoxyphenyl)-3-isopropyl-1H-indol-5-yl)-N4-(1-methylpiperidin-4-yl)cyclohexane-1,4-diamine] | 221 | 991
COc1ccc(-c2[nH]c3ccc(NC4CCC(N(C)CCCN(C)C)CC4)cc3c2C(C)C)cc1OC (stereo not drawn) [Example 43, N1-(2-(3,4-dimethoxyphenyl)-3-isopropyl-1H-indol-5-yl)-N4-(3-(dimethylamino)propyl)-N4-methylcyclohexane-1,4-diamine] | 252 | 477
CC(C)c1c(-c2ccnc3[nH]ncc23)[nH]c2ccc(N3CCN(C4CCN(C(C)C)CC4)CC3)cc12 [Example 167, 4-(3-isopropyl-5-(4-(1-isopropylpiperidin-4-yl)piperazin-1-yl)-1H-indol-2-yl)-1H-pyrazolo[3,4-b]pyridine] | 5180 | 411
COc1ccc(-c2[nH]c3ccc(NC4CCC(N5CCN(CCCN6CCCC6)CC5)CC4)cc3c2C(C)C)cc1OC (stereo not drawn) [Example 67, 2-(3,4-dimethoxyphenyl)-3-isopropyl-N-(4-(4-(3-(pyrrolidin-1-yl)propyl)piperazin-1-yl)cyclohexyl)-1H-indol-5-amine] | 322 | 589
COc1ccc(-c2[nH]c3ccc(NC4CCC(NCCN(C)C)CC4)cc3c2C(C)C)cc1OC (stereo not drawn) [Example 33, N1-(2-(3,4-dimethoxyphenyl)-3-isopropyl-1H-indol-5-yl)-N4-(2-(dimethylamino)ethyl)cyclohexane-1,4-diamine] | 136 | 650
COCCN1CCN(C2CCC(Nc3ccc4[nH]c(-c5ccc(OC)c(OC)c5)c(C(C)C)c4c3)CC2)CC1 (stereo not drawn) [Example 54, 2-(3,4-dimethoxyphenyl)-3-isopropyl-N-(4-(4-(2-methoxyethyl)piperazin-1-yl)cyclohexyl)-1H-indol-5-amine] | 269 | 970
COc1ccc(-c2[nH]c3ccc(NC4CCC(N5CCN(C(C)=O)CC5)CC4)cc3c2C(C)C)cc1OC (single isomer, unassigned) [Example 44, 1-(4-(4-((2-(3,4-dimethoxyphenyl)-3-isopropyl-1H-indol-5-yl)amino)cyclohexyl)piperazin-1-yl)ethan-1-one] | 375 | 4070
COc1ccc(-c2[nH]c3ccc(NC4CCC(N5CCN(C)CC5)CC4)cc3c2C(C)C)cc1OC (stereo not drawn) [Example 34, 2-(3,4-dimethoxyphenyl)-3-isopropyl-N-(4-(4-methylpiperazin-1-yl)cyclohexyl)-1H-indol-5-amine] | 281 | 769
COc1ccc(-c2[nH]c3ccc(NC4CCC(NCCCN5CCOCC5)CC4)cc3c2C(C)C)cc1OC (stereo not drawn) [Example 56, N1-(2-(3,4-dimethoxyphenyl)-3-isopropyl-1H-indol-5-yl)-N4-(3-morpholinopropyl)cyclohexane-1,4-diamine] | 136 | 590
CCc1c(-c2ccc(OC)c(OC)c2)[nH]c2ccc(N3CCC(OC4CCN(C5CC(C)(C)NC(C)(C)C5)CC4)CC3)cc12 [Example 193, 2-(3,4-dimethoxyphenyl)-3-ethyl-5-(4-((2′,2′,6′,6′-tetramethyl-[1,4′-bipiperidin]-4-yl)oxy)piperidin-1-yl)-1H-indole] | 81 | 546
COc1ccc(-c2[nH]c3ccc(N4CCC(N5CCCN(C)CC5)CC4)cc3c2C(C)C)cc1OC [Example 123, 2-(3,4-dimethoxyphenyl)-3-isopropyl-5-(4-(4-methyl-1,4-diazepan-1-yl)piperidin-1-yl)-1H-indole] | 281 | 1690
COc1ccc(-c2[nH]c3ccc(N4CCC(N5CCC(N(C)C)CC5)CC4)cc3c2C(C)C)cc1OC [Example 83, 1′-(2-(3,4-dimethoxyphenyl)-3-isopropyl-1H-indol-5-yl)-N,N-dimethyl-[1,4′-bipiperidin]-4-amine] | 287 | 1290
